# Source: publication PMC6687188, “Novel lactate dehydrogenase inhibitors with in vivo efficacy against Cryptosporidium parvum” (PLoS Pathogens, 2019)
# Molecular target: recombinant CpLDH protein (Cryptosporidium parvum, UniProt Q9GT92, F198L/K295E/R251K)
row,SMILES,MEAN CpLDH INHIBITION (%)
1,C[C@]12Cc3cnc(-c4ccccc4)nc3C[C@@H]1CC[C@@H]1[C@@H]2CC[C@@]2(C)[C@H]1CC[C@]2(C)O [NSC39863],-20.27%
2,Cc1nc(Cl)c(C)c(Cl)n1 [NSC40212],-35.86%
3,O=C1C(Cl)=C(N2CCN(C3=C(Cl)C(=O)c4ccccc4C3=O)CC2)C(=O)c2ccccc21 [NSC40341],-22.69%
4,Nc1nc(SCc2ccccc2Cl)c2ncn(C3OC(CO)C(O)C3O)c2n1 (centres unmarked) [NSC40666],-57.18%
5,O=C(O)CC(S)C(=O)O (centres unmarked) [NSC41809],-14.35%
6,COc1ccc(/C=C/c2cc(O)cc(O[C@@H]3O[C@H](CO)[C@@H](O)[C@H](O)[C@H]3O)c2)cc1O [NSC43321],-58.94%
7,CCN(CC)c1ccc2cc3ccc(=[N+](CC)CC)cc-3oc2c1.[Cl-] [NSC44690],-28.19%
8,Oc1ccc2ccccc2c1N=Nc1cccc2ccccc12 [NSC45575],-10.08%
9,CCCCCc1cc(/C=C2/N=C(c3ccc[nH]3)C=C2OC)[nH]c1C [NSC47147],-37.67%
10,CC(=O)O[C@]1(C(C)=O)CC[C@H]2[C@@H]3C[C@H](C)C4=CC(=O)C=C[C@]4(C)[C@@]3(F)[C@@H](O)C[C@@]21C [NSC47438],-57.83%
11,CC(C)(C)c1ccc(O)c(CN(Cc2cc(C(C)(C)C)ccc2O)C2CCCCC2)c1 [NSC48151],-66.17%
12,CC(=O)OC(C)(C)/C=C/C(=O)[C@](C)(O)[C@H]1[C@H](O)C[C@@]2(C)[C@@H]3CC=C4[C@@H](C[C@H](O)C(=O)C4(C)C)[C@]3(C)C(=O)C[C@]12C [NSC49451],-57.10%
13,[Cl-].c1csc(C[N+]23CN4CN(CN(C4)C2)C3)c1 [NSC49660],-3.53%
14,CN(C)[C@@H]1C(=O)C(C(N)=O)=C(O)[C@@]2(O)C(=O)C3=C(O)c4c(O)cccc4C[C@H]3C[C@@H]12 [NSC51812],-26.06%
15,C[C@@H]1C[C@H]2CC[C@H](O2)[C@H](C)C(=O)O[C@@H](C)C[C@@H]2CC[C@@H](O2)[C@@H](C)C(=O)O[C@H](C)C[C@H]2CC[C@H](O2)[C@H](C)C(=O)O[C@@H](C)C[C@@H]2CC[C@@H](O2)[C@@H](C)C(=O)O1 [NSC52141],-100.84%
16,COc1ccc(-c2cc(=O)c3c(OC)c(OC)c(OC)cc3o2)cc1 [NSC53908],-32.76%
17,Nc1nc(-c2cccs2)cs1 [NSC54297],-31.48%
18,COc1ccc2oc(-c3ccncc3)cc(=O)c2c1 [NSC54650],-73.33%
19,O=C1/C(=C\c2cccs2)Oc2ccccc21 [NSC56544],-23.78%
20,COc1cccc(/C=N\NC(=O)C(C)SC(C)C(=O)N/N=C/c2cccc(OC)c2)c1 (centres unmarked) [NSC56737],-38.88%
21,CCCCCCCCCCCCCCCCOCC(O)CO (centres unmarked) [NSC59269],0.04%
22,O=[n+]1c2c(n([O-])c3ccccc31)-c1cccc3cccc-2c13 [NSC60309],-23.17%
23,CC[C@@]12CCCN3CC[C@]4(c5cccc(OC)c5N(C(C)=O)[C@@H]4CC1)[C@H]32 [NSC61811],-26.07%
24,CC(C)[C@@H](C)/C=C/[C@@H](C)[C@H]1CC[C@H]2C3=CC=C4C[C@@H](O)CC[C@]4(C)[C@H]3CC[C@]12C [NSC62791],-22.35%
25,CS(=O)(=O)c1nc(N)nc2nc[nH]c12 [NSC63446],-4.16%
26,N#Cc1cn([C@@H]2O[C@H](CO)[C@@H](O)[C@H]2O)c2ncnc(N)c12 [NSC63701],-0.31%

row,SMILES,MEAN CpLDH INHIBITION (%)
1,CC(C)CCCCCCCCCCCCC(=O)NCC(=O)NC1C(O)C(O)C(Nc2ncnc3nc[nH]c23)OC1C(O)CO (centres unmarked) [NSC65104],-113.50%
2,NC(=O)c1cn([C@@H]2O[C@H](CO)[C@@H](O)[C@H]2O)c2ncnc(N)c12 [NSC65346],-11.87%
3,NC(=O)C#CC(N)=O [NSC65381],0%
4,OC[C@H]1O[C@@H](n2cnc3cncnc32)[C@H](O)[C@@H]1O [NSC65423],-32.77%
5,O=C(Nc1ccc2c(c1)oc(=O)c1ccccc12)C(Cl)Cl [NSC65937],-25.00%
6,CCCCC(/C=N/N=C(N)N)CC.Cc1cc(O)c(C(C)C)cc1S(=O)(=O)O [NSC66300],-42.12%
7,CCCc1c(Cl)nc(Cl)nc1Cl [NSC66914],-32.10%
8,COc1cc(-c2cc(=O)c3c(OC)c(OC)c(OC)c(OC)c3o2)cc(OC)c1OC [NSC67580],-41.90%
9,O=C(O)c1ccccc1-c1ccccc1C(=O)Nc1ccc2c(c1)Cc1ccccc1-2 [NSC67690],-56.08%
10,COc1cc(C[C@H]2c3cc(OC)c(OC)cc3CCN2C)c(Oc2cc3c(cc2OC)-c2c(OC)c(OC)cc4c2[C@H](C3)N(C)CC4)cc1OC [NSC68075],-148.49%
11,[O-][n+]1ccccc1[S-].[O-][n+]1ccccc1[S-].[Zn+2] [NSC68093],-17.03%
12,COc1ccc2[nH]c3c(C)c4ccncc4c(C)c3c2c1 [NSC69187],-16.81%
13,Cl.Cl.Cl.Cl.NCCCNCCCCNCCCN [NSC69852],-11.66%
14,Nc1ncnc2c1ncn2C1OC(CO)C(O)C1O (centres unmarked) [NSC70422],-12.00%
15,COc1ccc(OC)c(-c2cc(=O)c3c(OC)c(OC)c(OC)c(OC)c3o2)c1 [NSC71300],-64.35%
16,Nc1nc(N)c(-c2cccc(C(F)(F)F)c2)c(Cc2cccc(C(F)(F)F)c2)n1 [NSC71669],-53.065%
17,Nc1nc(=S)c2ncn(C3CC(O)C(CO)O3)c2[nH]1 (centres unmarked) [NSC71851],-30.23%
18,Nc1ncnc2c1nnn2[C@@H]1O[C@H](CO)[C@@H](O)[C@H]1O [NSC72961],-2.40%
19,CC(=O)C1=C(O)C2(O)C(=O)c3c(c(C)c4ccc(C)c(O)c4c3O)CC2C(N)C1=O.CCCCCCCCCCCCOS(=O)(=O)O (centres unmarked) [NSC73495],-99.50%
20,NC(N)=N/N=C(\c1ccc(Cl)cc1)C1CC1 [NSC74420],-7.03%
21,O=C(Nc1ccc(Sc2ccc(N=Nc3c(O)c(S(=O)(=O)O)cc4cc(S(=O)(=O)O)ccc34)cc2)cc1)c1ccc(N=Nc2c(O)ccc3c(S(=O)(=O)O)cc(S(=O)(=O)O)cc23)cc1 [NSC76027],-85.04%
22,CC1=Nc2ccccc2/C1=C\c1c(C)[nH]c2ccccc12 [NSC76747],-6.97%
23,C[C@]12C=CC(=O)C=C1[C@@H](F)C[C@H]1[C@@H]3CC[C@](O)(C(=O)CO)[C@@]3(C)C[C@H](O)[C@@]12F [NSC77021],-2.42%
24,CCCCOc1ccc(NC(N)=Nc2ccc(Cl)cc2)cc1 [NSC78365],-60.70%
25,Cc1ccc([N+](=O)[O-])cc1NC(=O)c1cccc([N+](=O)[O-])c1O [NSC79451],-40.98%
26,Cc1ccc(NC(=O)c2cccc([N+](=O)[O-])c2O)c(C)c1 [NSC79456],-17.92%

row,SMILES,MEAN CpLDH INHIBITION (%)
1,CN(C)c1ccc(/C=C2\C=Cc3ccccc32)cc1 [NSC80087],-24.95%
2,COc1cc(OC)c(OC)cc1/C=C/c1ccnc2ccccc12 [NSC80756],-22.71%
3,Cc1ccc(NC(=O)c2cccc([N+](=O)[O-])c2O)c([N+](=O)[O-])c1 [NSC82025],-16.46%
4,N[C@@H](CSC(c1ccccc1)(c1ccccc1)c1ccccc1)C(=O)O [NSC83265],-6.04%
5,BrCCC[P+](c1ccccc1)(c1ccccc1)c1ccccc1.[Br-] [NSC84074],-40.93%
6,C=C1C(=O)O[C@@H]2C[C@@H](C)[C@@H]3C=CC(=O)[C@@]3(C)[C@@H](O)[C@H]12 [NSC85236],-30.32%
7,Cc1ccc2c(ccc(C=Cc3ccc(O)c4ncccc34)[n+]2C)c1 [NSC85700],-37.65%
8,Cc1c2c(cc3c1[nH]c1ccccc13)C=NCC2 [NSC86100],-9.40%
9,Cc1c2ccncc2cc2c1[nH]c1ccccc12 [NSC87206],-25.74%
10,O=c1cccccc1O [NSC89303],-7.26%
11,C[C@H]1CCC/C=C/[C@@H]2C[C@H](O)C[C@H]2[C@H](O)/C=C/C(=O)O1 [NSC89671],-22.45%
12,C=C(C)[C@@H]1CC[C@]2(C)CC[C@]3(C)[C@H](CC[C@@H]4[C@@]5(C)CC[C@H](O)C(C)(C)[C@@H]5CC[C@]43C)[C@@H]12 [NSC90487],-42.73%
13,CC(C)(C)C1CCC2(CC1)CCN(CCCN1CCOCC1)CC2 [NSC90829],-2.93%
14,CCCCCCCCCc1c(Cl)nc(Cl)nc1Cl [NSC92510],-23.70%
15,COc1cc2c3cc1Oc1c(OC)c(OC)cc4c1[C@H](Cc1ccc(cc1)Oc1cc(ccc1O)C[C@H]3N(C)CC2)N(C)CC4 [NSC93135],-27.33%
16,COc1cc(O)c2c(c1)C(=O)c1cc3c(c(O)c1C2=O)[C@@H](O[C@@H]1O[C@@H](C)[C@H](O)[C@@H](O)[C@H]1OC)[C@H](OC)[C@](C)(O)C3=O [NSC93419],-51.14%
17,CC1=CC(=C(c2ccc(N)cc2)c2ccc(N)cc2)C=CC1=N.Cl [NSC93739],-24.21%
18,CC(=O)NCCCCCCNC(C)=O [NSC95580],-114.38%
19,NC(=S)NN=Cc1ncccc1O [NSC95678],-37.43%
20,COC1(O)C(=O)c2ccccc2OC1(OC)c1ccccc1 (centres unmarked) [NSC95848],-17.43%
21,CCN1/C(=C/C(C)=C/c2sc3ccccc3[n+]2CC)Sc2ccccc21.[I-] [NSC96932],-8.62%
22,CC1(c2cccc3ccccc23)OC(=O)c2ccccc21 (centres unmarked) [NSC97703],-3.23%
23,CC(=O)c1ccc(Oc2ccc(/C(C)=N\N=C(N)N)cc2)cc1.O=[N+]([O-])O [NSC97911],-11.97%
24,[O-][Cl+3]([O-])([O-])[O-].c1ccc(-c2csc3c4ccccc4c4ccccc4[n+]23)cc1 [NSC98904],-42.18%
25,CN1CC[C@]23c4ccccc4N[C@H]1[C@]21CCN(C)[C@H]3Nc2ccccc21 [NSC99016],-25.29%
